Consider 11 compounds from ChEMBL document CHEMBL5104121, “Stereoisomeric Pam2CS based TLR2 agonists: synthesis, structural modelling and activity as vaccine adjuvants” (RSC Med Chem, 2022).

For assay [1], the system named is Mus musculus. Description: Protection against influenza A/California/04/2009 virus-challenged C57BL/6 mouse assessed as effect on body weight at 10 ug, IM administered twice 2 weeks apart along with recombinant influenza A/California/04/2009 HA protein immunization. It counts as functional, organism-based. The settings on record: dose 10.0 µg.
The test system of assay [2] is Mus musculus. In words: Immuno-adjuvant activity in C57BL/6 mouse immunized with recombinant hepatitis B surface antigen assessed as increase in anti-HBs antibody at 10 ug, IM administered twice 2 weeks apart by ELISA analysis. Format: functional, organism-based. The settings on record: dose 10.0 µg. In general terms: An ELISA detects its analyte on a solid surface through an enzyme-linked reagent.

Assay [3] concerns Mus musculus. Description: Immuno-adjuvant activity in C57BL/6 mouse immunized with recombinant hepatitis B surface antigen assessed as increase in IgG2/IgG1 ratio at 10 ug, IM administered twice 2 weeks apart by ELISA analysis. It counts as functional, organism-based. To be noted: dose 10.0 µg.
The subject of assay [4] is Mus musculus. Description: Immuno-adjuvant activity in C57BL/6 mouse immunized with recombinant influenza A/California/04/2009 HA protein assessed as increase in anti-HAs antibody at 10 ug, IM administered twice 2 weeks apart by ELISA analysis. It counts as functional, organism-based. To be noted: dose 10.0 µg.
In assay [5] the target is T1, TLR2/TLR6 (Homo sapiens, UniProt O60603+Q9Y2C9). In words: Agonist activity at human TLR2/TLR6 expressed in HEK-Blue hTLR2-TLR6 cells by SEAP reporter gene based Quanti-blue assay. It counts as cell-based. Background: In a reporter assay the amount or activity of a reporter protein is the signal.
T1 sequence (O60603 whole entry): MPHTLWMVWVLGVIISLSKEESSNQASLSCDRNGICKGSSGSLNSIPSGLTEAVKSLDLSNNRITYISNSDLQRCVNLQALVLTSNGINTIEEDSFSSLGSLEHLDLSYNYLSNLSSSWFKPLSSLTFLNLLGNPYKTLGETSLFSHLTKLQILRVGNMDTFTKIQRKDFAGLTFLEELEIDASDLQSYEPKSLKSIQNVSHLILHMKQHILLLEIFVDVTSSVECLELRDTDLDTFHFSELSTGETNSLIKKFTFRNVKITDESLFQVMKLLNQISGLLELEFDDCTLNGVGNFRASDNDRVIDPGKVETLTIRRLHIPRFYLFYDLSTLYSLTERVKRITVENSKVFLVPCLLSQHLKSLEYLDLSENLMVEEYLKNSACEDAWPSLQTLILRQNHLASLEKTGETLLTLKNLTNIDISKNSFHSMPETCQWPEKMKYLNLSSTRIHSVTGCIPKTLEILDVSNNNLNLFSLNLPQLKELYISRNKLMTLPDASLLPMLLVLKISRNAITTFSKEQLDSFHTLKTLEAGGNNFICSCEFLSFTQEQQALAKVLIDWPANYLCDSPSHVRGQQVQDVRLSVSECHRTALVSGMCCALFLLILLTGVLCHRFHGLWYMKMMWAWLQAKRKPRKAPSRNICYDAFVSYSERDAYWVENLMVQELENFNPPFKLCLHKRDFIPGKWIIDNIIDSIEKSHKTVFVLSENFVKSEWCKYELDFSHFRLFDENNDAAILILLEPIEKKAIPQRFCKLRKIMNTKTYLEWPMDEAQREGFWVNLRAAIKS
T1 sequence (Q9Y2C9 whole entry): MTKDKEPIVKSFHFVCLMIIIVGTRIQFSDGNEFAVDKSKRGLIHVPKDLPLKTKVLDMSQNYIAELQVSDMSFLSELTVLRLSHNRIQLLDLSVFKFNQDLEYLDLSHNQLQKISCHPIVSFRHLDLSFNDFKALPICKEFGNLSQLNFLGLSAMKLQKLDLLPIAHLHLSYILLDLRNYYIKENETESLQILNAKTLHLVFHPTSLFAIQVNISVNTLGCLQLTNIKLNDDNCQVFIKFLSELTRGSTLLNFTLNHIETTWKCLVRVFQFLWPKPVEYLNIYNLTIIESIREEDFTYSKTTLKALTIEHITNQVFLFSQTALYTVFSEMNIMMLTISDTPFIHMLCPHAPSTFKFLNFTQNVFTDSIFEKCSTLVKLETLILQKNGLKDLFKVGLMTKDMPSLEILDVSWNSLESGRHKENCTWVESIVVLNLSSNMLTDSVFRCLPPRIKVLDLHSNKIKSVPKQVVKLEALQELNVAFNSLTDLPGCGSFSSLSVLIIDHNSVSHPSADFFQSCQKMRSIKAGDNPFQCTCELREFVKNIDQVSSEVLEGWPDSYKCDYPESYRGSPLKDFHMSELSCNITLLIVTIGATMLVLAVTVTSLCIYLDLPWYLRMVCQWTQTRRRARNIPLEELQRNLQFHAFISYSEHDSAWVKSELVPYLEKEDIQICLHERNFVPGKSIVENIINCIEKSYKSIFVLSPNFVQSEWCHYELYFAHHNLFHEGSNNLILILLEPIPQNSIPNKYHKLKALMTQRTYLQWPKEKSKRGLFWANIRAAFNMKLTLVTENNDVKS
In assay [6] the test system is Mus musculus. In words: Protection against influenza A/California/04/2009 virus-challenged C57BL/6 mouse assessed as effect on survival at 10 ug, IM administered twice 2 weeks apart along with recombinant influenza A/California/04/2009 HA protein immunization. Format: functional, organism-based. To be noted: dose 10.0 µg.
The target of assay [7] is T1, TLR2/TLR6. In words: Agonist activity at TLR2/TLR6 in human PBMC cells assessed as increase in TNF-alpha production at 0.1 ug/ml incubated for 24 hrs. Format: cell-based. The settings on record: filed as agonist, dose 0.1 µg/ml.
For assay [8], the target named is T1, TLR2/TLR6. Description: Agonist activity at TLR2/TLR6 in human PBMC cells assessed as increase in IL-10 production at 0.1 ug/ml incubated for 24 hrs. To be noted: filed as agonist, dose 0.1 µg/ml. It counts as cell-based.
Assay [9] has as its target T1, TLR2/TLR6. Description: Agonist activity at TLR2/TLR6 in human PBMC cells assessed as increase in IL-6 production at 0.1 ug/ml incubated for 24 hrs. It counts as cell-based. The settings on record: filed as agonist, dose 0.1 µg/ml.
For assay [10], the target named is T2, TLR2/TLR6 (Mus musculus) (UniProt Q9QUN7+Q9EPW9). Description: Agonist activity at TLR2/TLR6 in C57BL/6 mouse spleen B cells assessed as increase in CD40 expression incubated for 24 hrs by fluorescence based flow cytometric analysis. To be noted: B cell, filed as agonist, dose 10-0.1 µg/ml, DDE = dose-dependent effect. It counts as tissue-based. For orientation: A flow cytometer gives signals particle by particle.

Assay [11] concerns the target T2, TLR2/TLR6 (Mus musculus). Description: Agonist activity at TLR2/TLR6 in C57BL/6 mouse spleen dendritic cells assessed as increase in CD40 expression incubated for 24 hrs by fluorescence based flow cytometric analysis. It counts as tissue-based. The settings on record: Dendritic cell, filed as agonist, dose 10-0.1 µg/ml, DDE = dose-dependent effect.
The target in assay [12] is T2, TLR2/TLR6 (Mus musculus). Description: Agonist activity at TLR2/TLR6 in C57BL/6 mouse spleen B cells assessed as increase in CD86 expression incubated for 24 hrs by fluorescence based flow cytometric analysis. Format: tissue-based. The settings on record: B cell, filed as agonist, dose 10-0.1 µg/ml, DDE = dose-dependent effect.
For assay [13], the target named is T2, TLR2/TLR6 (Mus musculus). Description: Agonist activity at TLR2/TLR6 in C57BL/6 mouse spleen dendritic cells assessed as increase in CD86 expression incubated for 24 hrs by fluorescence based flow cytometric analysis. The settings on record: Dendritic cell, filed as agonist, dose 10-0.1 µg/ml, DDE = dose-dependent effect. Format: tissue-based.
In assay [14] the target is T2, TLR2/TLR6 (Mus musculus). In words: Agonist activity at TLR2/TLR6 in C57BL/6 mouse spleen dendritic cells assessed as increase in CD86 expression at 10 to 0.1 ug/ml incubated for 24 hrs by fluorescence based flow cytometric analysis. It counts as tissue-based. To be noted: Dendritic cell, filed as agonist, dose 10-0.1 µg/ml.
The target in assay [15] is T2, TLR2/TLR6 (Mus musculus). Description: Agonist activity at TLR2/TLR6 in C57BL/6 mouse spleen B cells assessed as increase in CD86 expression at 10 to 0.1 ug/ml incubated for 24 hrs by fluorescence based flow cytometric analysis. It counts as tissue-based. To be noted: B cell, filed as agonist, dose 10-0.1 µg/ml.
Assay [16] deals with T2, TLR2/TLR6 (Mus musculus). Description: Agonist activity at TLR2/TLR6 in C57BL/6 mouse spleen B cells assessed as increase in CD40 expression at 10 to 0.1 ug/ml incubated for 24 hrs by fluorescence based flow cytometric analysis. It counts as tissue-based. The settings on record: B cell, filed as agonist, dose 10-0.1 µg/ml.
Assay [17] concerns the target T2, TLR2/TLR6 (Mus musculus). Description: Agonist activity at TLR2/TLR6 in C57BL/6 mouse spleen dendritic cells assessed as increase in CD40 expression at 10 to 0.1 ug/ml incubated for 24 hrs by fluorescence based flow cytometric analysis. It counts as tissue-based. The settings on record: Dendritic cell, filed as agonist, dose 10-0.1 µg/ml.

Calls of active or inactive are those of the source. The rule behind the calls is not given here. Where a SMILES comes first, the peptide text is derived from it. The star is where a group is joined. Propyl(2R-PamO,3-PamO) = CCCCCCCCCCCCCCCC(=O)OC[C@H](C*)OC(=O)CCCCCCCCCCCCCCC; Palmitoyl = CCCCCCCCCCCCCCCC(=O)*

As a reminder, the EC50 is the midpoint of the concentration-response curve. Read a high EC50 as a need for much substance. `CCCCCCCCCCCCCCCC(=O)OC[C@H](CSC[C@H](NC(C)=O)C(=O)N[C@@H](CO)C(=O)OC)OC(=O)CCCCCCCCCCCCCCC`: the outcome with Mus musculus [1], in the assay on Mus musculus [2], in the assay with Mus musculus [3], in the assay with Mus musculus [4], in the assay with Mus musculus [6] and on TLR2/TLR6 [7] was Active. Besides, the outcome on TLR2/TLR6 [8] and at TLR2/TLR6 [9] was Active. This compound also showed an EC50 on TLR2/TLR6 [5] of 0.8 nM.
`CCCCCCCCCCCCCCCC(=O)OC[C@@H](CSC[C@H](N)C(=O)N[C@@H](CO)C(=O)OC)OC(=O)CCCCCCCCCCCCCCC`: the Activity result on TLR2/TLR6 (Mus musculus) [10], on TLR2/TLR6 (Mus musculus) [11], at TLR2/TLR6 (Mus musculus) [12] and at TLR2/TLR6 (Mus musculus) [13] was “Dde” each time. The EC50 at TLR2/TLR6 [5] came out at 134 nM.
Regarding `CCCCCCCCCCCCCCCC(=O)OC[C@H](CSC[C@H](NC(=O)OC(C)(C)C)C(=O)N[C@@H](COC(C)(C)C)C(=O)OC)OC(=O)CCCCCCCCCCCCCCC`, the midpoint of the response at TLR2/TLR6 [5], the EC50, lay at 5870 nM. Also, the outcome at TLR2/TLR6 (Mus musculus) [14] and on TLR2/TLR6 (Mus musculus) [15] was Active.
Take `CCCCCCCCCCCCCCCC(=O)OCC(CSC[C@H](N)C(=O)N[C@@H](CO)C(=O)OC)OC(=O)CCCCCCCCCCCCCCC` (mixture of isomers): the result in the assay on Mus musculus [1], in the assay on Mus musculus [4], with Mus musculus [6], on TLR2/TLR6 [7], at TLR2/TLR6 [8] and on TLR2/TLR6 [9] was Active. Besides, the EC50 on TLR2/TLR6 [5] amounted to 1 nM.
On to `CCCCCCCCCCCCCCCC(=O)OC[C@H](CSC[C@H](N)C(=O)N[C@@H](CO)C(=O)OC)OC(=O)CCCCCCCCCCCCCCC`, for which the Activity entry at TLR2/TLR6 (Mus musculus) [10], on TLR2/TLR6 (Mus musculus) [11], on TLR2/TLR6 (Mus musculus) [12] and on TLR2/TLR6 (Mus musculus) [13] was “Dde” in each case. In addition, the outcome in the assay on Mus musculus [1], with Mus musculus [2], in the assay with Mus musculus [3], in the assay on Mus musculus [4], with Mus musculus [6] and on TLR2/TLR6 [7] was Active. The result at TLR2/TLR6 [8] and at TLR2/TLR6 [9] was Active. This compound also returned an EC50 at TLR2/TLR6 [5] of 0.4 nM.
`CCCCCCCCCCCCCCCC(=O)OC[C@@H](CSC[C@H](NC(=O)OC(C)(C)C)C(=O)N[C@@H](COC(C)(C)C)C(=O)OC)OC(=O)CCCCCCCCCCCCCCC`: the midpoint of the response at TLR2/TLR6 [5], the EC50, lay at 4270 nM.
With `CCCCCCCCCCCCCCCC(=O)OC[C@H](CSC[C@H](N)C(=O)N[C@@H](CO)C(=O)N[C@@H](CCCCN)C(=O)N[C@@H](CCCCN)C(=O)N[C@@H](CCCCN)C(=O)N[C@@H](CCCCN)C(=O)O)OC(=O)CCCCCCCCCCCCCCC` (H-C(Propyl(2R-PamO,3-PamO))SKKKK-OH), the result in the assay on Mus musculus [2], at TLR2/TLR6 (Mus musculus) [16], at TLR2/TLR6 (Mus musculus) [17], on TLR2/TLR6 (Mus musculus) [14], at TLR2/TLR6 [7] and on TLR2/TLR6 (Mus musculus) [15] was Active. Moreover, the outcome on TLR2/TLR6 [8] and on TLR2/TLR6 [9] was Active. At TLR2/TLR6 [5], this compound had an EC50 of 0.3 nM.
`CCCCCCCCCCCCCCCC(=O)OCC(CSC[C@H](NC(=O)OC(C)(C)C)C(=O)N[C@@H](COC(C)(C)C)C(=O)OC)OC(=O)CCCCCCCCCCCCCCC` (mixture of isomers) yielded an EC50 at TLR2/TLR6 [5] of 5640 nM.
`CCCCCCCCCCCCCCCC(=O)OC[C@@H](CSC[C@H](NC(C)=O)C(=O)N[C@@H](CO)C(=O)OC)OC(=O)CCCCCCCCCCCCCCC` yielded a concentration for a half-maximal effect (EC50) at TLR2/TLR6 [5] of 252 nM. Further, the outcome at TLR2/TLR6 [7], at TLR2/TLR6 [8] and on TLR2/TLR6 [9] was Active.
Consider `CCCCCCCCCCCCCCCC(=O)N[C@@H](CSC[C@@H](COC(=O)CCCCCCCCCCCCCCC)OC(=O)CCCCCCCCCCCCCCC)C(=O)N[C@@H](CO)C(=O)N[C@@H](CCCCN)C(=O)N[C@@H](CCCCN)C(=O)N[C@@H](CCCCN)C(=O)N[C@@H](CCCCN)C(=O)O` (Palmitoyl-C(Propyl(2R-PamO,3-PamO))SKKKK-OH), for which the result in the assay with Mus musculus [2], on TLR2/TLR6 (Mus musculus) [16], on TLR2/TLR6 (Mus musculus) [17], at TLR2/TLR6 (Mus musculus) [14], on TLR2/TLR6 [7] and on TLR2/TLR6 (Mus musculus) [15] was Active. Moreover, the outcome on TLR2/TLR6 [8] and at TLR2/TLR6 [9] was Active. Also, the EC50 on TLR2/TLR6 [5] was 19.3 nM.
`CCCCCCCCCCCCCCCC(=O)OCC(CSC[C@H](NC(C)=O)C(=O)N[C@@H](CO)C(=O)OC)OC(=O)CCCCCCCCCCCCCCC` (mixture of isomers) yielded an EC50 on TLR2/TLR6 [5] of 5 nM. Moreover, the outcome at TLR2/TLR6 [7], at TLR2/TLR6 [8] and on TLR2/TLR6 [9] was Active.
